The subject of one series is murine gut microbiome. As to the kind of experiment: Oats diet with amoxicillin challenge, 16S rRNA sequencing of fecal pellets (Example 11). Format: in vivo, C57BL/6J mice. The following applies: Day 5, across each diet group. An excerpt: In Example 11, mice were fed LabDiet 5001 (LD01; LabDiet, St. Louis, MO, USA) feed pellets for a 2-week habituation period. For experimental diets, a custom base diet reflecting standard mouse chow fiber content was designed (Envigo-Teklad, Madison, WI, USA). The base diet modifies AlN-93G (TD.180901) by removing all cellulose and reducing cornstarch content while adjusting micro- and macronutrient contents so the diet could be an 80% base for 20% (wt/wt) supplementation with other carbon sources. Buffalo cornstarch (Ingredion Incorporated, IL, USA) was used to increase host accessibility and reduce cornstarch availability in the cecum and lower gastrointestinal tract. […]
In Example 11, total DNA and RNA was liberated from bacteria by bead-bashing fecal or cecum samples for 5 min on a Bead Ruptor 96 (Omni International, Kennesaw, GA). […] Nucleic acids were eluted in nuclease-free water and measured using the double-stranded DNA high sensitivity (dsDNA-HS) or RNA-HS kits on a Qubit 3.0 fluorometer (Thermo Fisher Scientific, Waltham, MA, USA).
In Example 11, the 16S rRNA gene V4 region was amplified from fecal total DNA using barcoded 515F forward and indexed 806R reverse primers as described by Parada, Needham, & Fuhrman, Environ. […] Amplicons were verified by gel electrophoresis, measured on the Qubit 3.0 and pooled in equimolar concentrations. […]

Series [1] is described as follows: Redox potential (eH) and pH measurements of cecal contents. Format: in vivo, C57BL/6J mice. The following applies: mice on standard chow diet. The procedure:
Mouse assays. C57BL/6J mice following the habituation period were given one week to acclimate to the control 0-fiber diet with 20% (w/w) glucose. After this diet acclimation period, mice were randomized into new cages for each diet/antibiotic condition. Amoxicillin was administered via drinking water (25 mg/kg/day) ad libitum for the specified timepoints. All drinking water was filter-sterilized before administration. Fecal samples were collected at the specified timepoints and stored at −20° C. until nucleic acid extraction. Cecum contents were collected directly into bead-bashing tubes with DNA/RNA shield (Zymo Research, Irvine, CA, USA) and stored at −80° C. for nucleic acid extraction. […]
Redox potential and pH measurements. Redox potential was measured according to a modified protocol from Husson (2012); Husson et al. (2016) with an Ag/AgCl Reference electrode (Radiometer analytical E21M002, Radiometer Analytical Pt plate electrode 5×5 mm M241 Pt), and a voltmeter. […] The samples were blinded and measured in random order. […]
The platinum electrode was inserted into each sample. […] The same cecal extracts were used to measure pH using a PH meter and for subsequent validation with ATP assays, 16S rRNA sequencing and quantitative polymerase chain reaction (qPCR) bacterial load. […]

Another series has as its system E. coli (MG1655). As to the kind of experiment: NAD+/NADH reporter: E. coli reporter assay. Format: cell-based, Escherichia coli. The method, then: NAD+/NADH reporter: E. coli reporter assay. The NAD+/NADH reporter plasmid (Liu et al., 2019) was transformed into E. coli (MG1655) for growth and fluorescence assays. Overnight cultures of E. coli were diluted 1:1000 in fresh Luria Broth. The diluted cultures were allowed to grow to 0.2 OD before treatment with amoxicillin and metformin. Fluorescence and growth (in OD) were measured in parallel using two plate readers. Data is shown with fluorescence normalized to growth and as separate growth and fluorescence curves.
This ratio is a stand in for cellular bioenergetics with a high ratio indicative of increased catabolism
The inventors then treated these bacteria with metformin and measured their growth and fluorescence. […] Dwyer et al. (2014). […] Stynen et al. (2018).
(In a reporter assay the amount or activity of a reporter protein is the signal.)

A further series has as its system gut microbiome. As to the kind of experiment: Metformin in vivo supplementation during antibiotic treatment, 16S rRNA sequencing of cecal contents. Also on record: species or system C57BL/6J mice.
Series [2] deals with Bacteroides thetaiotaomicron. As to the kind of experiment: Amoxicillin kill curve in B. theta. Format: cell-based. The following applies: anaerobic.
Method: Bacteroides theta was cultured in modified Gifu Anaerobic Media (mGAM, HyServe). […] Anaerobic assays were cultured in a BactronEZ anaerobic chamber (Sheldon Manufacturing, Cornelius, OR, USA) under an atmosphere of 5% H2, 5% N2, and 90% CO2. All bacteria were grown at 37° C.
Series [3] can be described thus: Mass spectrometry for metformin measurement in serum, liver and cecum. To be noted: low-fiber glucose diet with 100 mg/kg metformin hydrochloride, five days, LC/MS. It is filed as in vivo, C57BL/6J mice.
Method: Metformin in vivo supplementation. Metformin hydrochloride (Fisher Scientific, Waltham, MA, USA) was added to powdered mouse diet at 100 mg/kg (w/w) or 0.1% in the glucose diet and homogenized before administration to mice via feeding jars. In the chow diet metformin was added 50 mg/kg (w/w) or 0.05%.
Mass spectrometry for metformin measurement. Plasma, liver and cecal samples were collected for from the sacrificed mice in the two metformin supplementation assays (n=6 mice per group, twenty-four mice/assay). The liver was perfused with phosphate-buffered saline upon collection and the tissue was homogenized with reverse osmosis-purified water at 1 mg/10 μL using a Bead Ruptor at speed 30 for five minutes. Supernatants from the homogenate was collected after centrifugation at 2000×g for five minutes to pellet beads. Cecal contents were also homogenized with reverse osmosis-purified water at 1 mg/10 μL, and supernatants were used for analysis. Metformin extraction and mass spec protocol modified from Chaudhari et al. (2020). For metformin extraction, 30 μL of cecal/tissue homogenates or plasma were added to 70 μL of D6-metformin ([sequence]) at 250 μM concentration in methanol. […]
Metformin in biological samples after spiking with D6-metformin ([sequence]) and extraction was quantitated with HPLC-MS on an Ultimate 3000, Dionex coupled to Q Executive Classic (Thermo Fisher) with ESI interface. […]
In the next series the test system is E. coli. As to the kind of experiment: Amoxicillin kill curve in E. coli. Format: cell-based, Escherichia coli. The following applies: aerobic, increasing concentrations of metformin. The method, then: Bacterial strains. Bacteroides thetaiotaomicron (VPI-5482) can be obtained from the American Type Culture Collection (ATCC; Manassas, VA, USA). Bacteroides theta was cultured in modified Gifu Anaerobic Media (mGAM, HyServe). Escherichia coli (MG1655) was cultured in Luria Broth (Fisher Scientific, Waltham, MA, USA). Anaerobic assays were cultured in a BactronEZ anaerobic chamber (Sheldon Manufacturing, Cornelius, OR, USA) under an atmosphere of 5% H2, […]. All bacteria were grown at 37° C.
Amoxicillin kill curves in E. coli and B. theta. Kill Curves for E. coli were done in an aerobic environment and for B. theta in the anaerobic chamber. Overnight cultures s were grown in Luria Broth (E. coli) or mGAM (B. theta). Overnight cultures were diluted 1:100 in fresh media. They were allowed to grow to 0.2 OD before treatment with amoxicillin and metformin. Samples were grown at 37° C. and plated every two hours for six hours in serial dilutions. Colony forming units (CFUs) were measured the following day.
The inventors then tested the survival of bacteria treated with metformin against amoxicillin. […] These assays were conducted aerobically in E. coli.

Molecules are shown by their SMILES. Where a name gives a salt, the structure may show the parent alone.

For the compound `CC1(C)S[C@@H]2[C@H](NC(=O)[C@H](N)c3ccc(O)cc3)C(=O)N2[C@H]1C(=O)O` [amoxicillin, Amoxicillin], in the series with murine gut microbiome, the “relative proportion of Bacteroidota and Verrucomicrobiota compared to controls” value was “Bacteroidota receded and that of Verrucomicrobiota increased”. Besides, the “chemical redox of cecal contents” value in series [1] was “increased the chemical redox”. Besides, in the series with E. coli (MG1655) (E. coli, antibiotic treatment), the “NADH reporter fluorescence (NADH/NAD+ ratio)” value is “significantly increased fluorescence”.

Turning to `CN(C)C(=N)N=C(N)N` [metformin, Metformin hydrochloride], the “Desulfobacterota and Cyanobacteria phyla abundance” value with gut microbiome (all metformin treatment groups, low-fiber glucose diet and laboratory chow) is “complete depletion”. In addition, the “antibiotic-induced decrease in diversity (Shannon)” value in the series on gut microbiome (glucose diet with metformin, Day 1 and Day 5 of antibiotic treatment) was “smaller decrease in diversity”. Moreover, the “Proteobacteria at Day 5 of antibiotic treatment” value in the series with gut microbiome (glucose diet, metformin plus antibiotic, Day 5) is reported as “bloom in Proteobacteria in the Moraxellaceae family”. Also, the “bacterial diversity, metformin alone” value in the series with gut microbiome (glucose diet, no antibiotics, Day 5) was “significant changes in bacterial diversity”. In addition, the “initial spike in Proteobacteria during antibiotic treatment” value in the series with gut microbiome (glucose low-fiber diet, Day 1) is on record as “prevented the initial spike in Proteobacteria”. The “reduction in microbial diversity during antibiotic treatment” value in the series with gut microbiome (laboratory chow with metformin) is on record as “smaller reduction in microbial diversity”. Moreover, the “protection from amoxicillin (kill curve)” value in series [2] is on record as “significant protection from amoxicillin”. For the same compound, the “metformin levels in cecum, liver and serum” value in series [3] was “significantly higher in the cecum compared to the liver and serum”. In addition, the “survival of bacteria challenged with amoxicillin” value with E. coli is on record as “improved the survival of bacteria”. Moreover, the “NADH reporter fluorescence (NADH/NAD+ ratio), effect on the antibiotic-induced increase” value in the series with E. coli (MG1655) (E. coli treated with amoxicillin and metformin) is “suppressed this increase”.

Source of the values: patent US20240180955A1, “FIBER SUPPLEMENTATION PROTECTS FROM ANTIBIOTIC-INDUCED GUT MICROBIOME DYSBIOSIS BY MODULATING REDOX METABOLISM” (Brown University, priority 2022, published 2024).
